Four cell lines from the supplement of paper PMC10307832 can be followed below.

What all share (test): relative viability (nuclei count vs DMSO), 5 days (fraction); higher = more cells survive
Compound in assay [1]: CC1=CC(=CC=C1)NC2=NC(=CS2)C3=CC=NC=C3
In short, it runs like this:
(§1)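 Hoechst staining, done together with fixation and permeabilisation, marked nuclei for 4× imaging and MetaXpress counting. This followed 5 days without medium change after lung cancer cell lines, kept overnight at 37 °C in 1536-well plates, were pinned with five library-drug doses (not always all listed) spaced by √10 on vehicle-anchored plates. Viability is the ratio of treated-well to vehicle-well nuclei, expressed as a median across plates. Plates passed only at control CV below 25% with at least one doubling.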

Compound in another assay: Cc1ccc(NC(=O)c2ccc(CN3CCN(C)CC3)cc2)cc1Nc1nc(-c2cccnc2)cs1 [Masitinib]
In short, it runs like this:
as §1

Compound in the assay “Masitinib + Navitoclax”: Cc1ccc(NC(=O)c2ccc(CN3CCN(C)CC3)cc2)cc1Nc1nc(-c2cccnc2)cs1 [Masitinib] + CC1(C)CCC(c2ccc(Cl)cc2)=C(CN2CCN(c3ccc(C(=O)NS(=O)(=O)c4ccc(N[C@H](CCN5CCOCC5)CSc5ccccc5)c(S(=O)(=O)C(F)(F)F)c4)cc3)CC2)C1 [Navitoclax] (partner 0.5 µM)
In short, it runs like this:
(§2)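 One day after seeding in 1536-well plates, lung cancer cell lines were dosed by pin tool. Dosing was either single-drug or a fixed anchor-drug dose plus five library-drug doses (not always all listed) in √10 steps. After 5 days, nuclei were stained in one fix-and-stain step and counted on 4× images, and relative viability is the nuclei count of treated wells over that of vehicle wells, given as the median of duplicate plates.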

Compound in assay [2]: CC1=CC(=CC=C1)NC2=NC(=CS2)C3=CC=NC=C3 + CC(=O)Nc1cccc(-n2c(=O)n(C3CC3)c(=O)c3c(Nc4ccc(I)cc4F)n(C)c(=O)c(C)c32)c1 [Trametinib] (partner 0.02 µM)
In short, it runs like this:
as §2

Regarding NCI-H1395, the relative viability in assay [1] (0.08 µM) amounted to 0.765; in assay [1] (0.253 µM) it was 0.734; in assay [1] (0.8 µM), 0.898; in assay [1] (2.53 µM), 0.729; in assay [1] (8 µM), 0.766; with Masitinib (0.01 µM), 0.882. The relative viability in the assay with Masitinib (0.03162 µM) amounted to 0.965; with Masitinib (0.1 µM) it was 1.04; in the assay with Masitinib (0.3162 µM) it was 0.967; with Masitinib (1 µM), 0.85; in the assay with Masitinib + Navitoclax (first compound 0.01 µM) it was 1.25; with Masitinib + Navitoclax (first compound 0.03162 µM) it was 1.17. In addition, the relative viability in the assay with Masitinib + Navitoclax (first compound 0.1 µM) is 1.11; with Masitinib + Navitoclax (first compound 0.3162 µM) it was 1.1; in the assay with Masitinib + Navitoclax (first compound 1 µM), 1.05; in assay [2] (first compound 0.08 µM), 0.939; in assay [2] (first compound 0.8 µM) it was 0.964; in assay [2] (first compound 2.53 µM), 0.724. For the same cell line, the relative viability in assay [2] (first compound 8 µM) was found to be 0.898.

Consider SK-MES-1, for which the relative viability in assay [1] (0.08 µM) was found to be 0.815; in assay [1] (0.253 µM) it was 0.82; in assay [1] (0.8 µM), 0.804; in assay [1] (2.53 µM), 0.922; in assay [1] (8 µM), 0.861; in the assay with Masitinib (0.01 µM), 0.923. Besides, the relative viability with Masitinib (0.03162 µM) is 0.945; in the assay with Masitinib (0.1 µM), 1.04; with Masitinib (0.3162 µM) it was 0.881; with Masitinib (1 µM) it was 0.99; with Masitinib + Navitoclax (first compound 0.01 µM), 1.29; in the assay with Masitinib + Navitoclax (first compound 0.03162 µM), 1.23. The relative viability with Masitinib + Navitoclax (first compound 0.1 µM) was found to be 1.24; with Masitinib + Navitoclax (first compound 0.3162 µM), 1.17; with Masitinib + Navitoclax (first compound 1 µM), 0.99; in assay [2] (first compound 0.08 µM) it was 0.477; in assay [2] (first compound 0.253 µM), 0.5; in assay [2] (first compound 0.8 µM) it was 0.457. The relative viability in assay [2] (first compound 2.53 µM) turned out to be 0.571; in assay [2] (first compound 8 µM), 0.423.

In the case of PC-14, the relative viability in assay [1] (0.08 µM) amounted to 0.94; in assay [1] (0.253 µM), 0.899; in assay [1] (0.8 µM), 0.943; in assay [1] (2.53 µM), 0.917; in assay [1] (8 µM), 0.766; with Masitinib (0.01 µM) it was 0.916. Further, the relative viability worked out at 0.943 with Masitinib (0.03162 µM); 1.01 with Masitinib (0.1 µM); 1.01 in the assay with Masitinib (0.3162 µM); 1.01 with Masitinib (1 µM); 1.05 with Masitinib + Navitoclax (first compound 0.01 µM); 0.89 with Masitinib + Navitoclax (first compound 0.03162 µM). The relative viability with Masitinib + Navitoclax (first compound 0.1 µM) stood at 0.991; in the assay with Masitinib + Navitoclax (first compound 0.3162 µM), 1.04; in the assay with Masitinib + Navitoclax (first compound 1 µM), 0.937; in assay [2] (first compound 0.08 µM) it was 0.591; in assay [2] (first compound 0.253 µM), 0.747; in assay [2] (first compound 0.8 µM) it was 0.629. Moreover, the relative viability in assay [2] (first compound 2.53 µM) turned out to be 0.647; in assay [2] (first compound 8 µM), 0.36.

As to CAL-12T, the relative viability in assay [1] (0.08 µM) is 0.867; in assay [1] (0.253 µM), 0.928; in assay [1] (0.8 µM), 1.06; in assay [1] (2.53 µM), 0.854; in assay [1] (8 µM), 0.911; with Masitinib (0.01 µM) it was 0.922. Further, the relative viability came to 0.953 with Masitinib (0.03162 µM); 0.99 with Masitinib (0.1 µM); 0.97 with Masitinib (0.3162 µM); 0.967 in the assay with Masitinib (1 µM); 1.52 with Masitinib + Navitoclax (first compound 0.01 µM); 1.32 in the assay with Masitinib + Navitoclax (first compound 0.03162 µM). In addition, the relative viability with Masitinib + Navitoclax (first compound 0.1 µM) was determined as 1.26; with Masitinib + Navitoclax (first compound 0.3162 µM), 1.17; with Masitinib + Navitoclax (first compound 1 µM) it was 1.25; in assay [2] (first compound 0.08 µM) it was 0.282; in assay [2] (first compound 0.253 µM), 0.325; in assay [2] (first compound 0.8 µM), 0.342. In addition, the values for the relative viability in assay [2] (first compound 2.53 µM) and in assay [2] (first compound 8 µM) were 0.236 and 0.305, respectively.
